In patent US5677419A, “Cyclic vasoactive peptide analogs” (Hoffmann-La Roche Inc., priority 1994, dated 1997):
Where a SMILES comes first, the peptide text is derived from it. Bridges are numbered along the chain shown (N, C = ends). [ ]: non-standard residue; d: D form. Phe(4-NH2) = Nc1ccc(C[C@H](N)C(=O)O)cc1; Phe(4-F) = N[C@@H](Cc1ccc(F)cc1)C(=O)O; 1Nal = N[C@@H](Cc1cccc2ccccc12)C(=O)O; Nle = CCCC[C@H](N)C(=O)O

What follows are molecules tested on guinea pig tracheal smooth muscle (assay: Tracheal relaxant activity of VIP analogs on isolated guinea pig tracheal rings). Conditions: cumulative concentration response, relaxation as % of maximum response to VIP (10^-6 M=100%), three tissues pooled, linear regression.
Format: cell-based
Procedure: The relaxant activity of the VIP analogs were studied in a model utilizing guinea pig trachea. [Wasserman, M. A. et al., in Vasoactive Intestinal Peptide, S. I. Said, ed., Raven Press, New York 1982, pp 177-184] All tissues were taken from male albino guinea pig weighing 400-600 g, anesthetized with urethane (2 g/kg, i.p.). After exanguination, the trachea were removed and divided into four ring segments (3 mm length). Each ring was suspended by 30 gauge stainless steel wires in a 10 mL jacketed tissue bath and attached via 4-0 silk thread to a GRASS force displacement transducer (model FT03C, Grass Instruments Co., Quincy, Mass.), for isometric recording of tension. The smooth muscle was bathed in modified Krebs solution of the following composition: NaCl, 120 mM; KCl, 4.7 mM; CaCl2, 2.5 mM; MgSO4.7H2 O, 1.2 mM; NaHCO3, 25 mM; K2 HPO4 monobasic, 1.2 mM; and dextrose, 10 mM. Tissue baths were maintained at 37° C. and constantly bubbled with 95% O2 and 5% CO2. Responses were recorded on an 8 channel and a 4 channel HEWLETT-PACKARD (model 7702B and 7754A, respectively) recorder (Hewlett- Packard, Paramus, N.J.). Tracheal rings were placed under a resting tension of 1.5 g which was determined to be at or near optimal in preliminary experiments. Frequent readjustments of tension were required during the 60 minute stabilization period which followed. Tissues were rinsed at 15 minute intervals.
Cumulative concentration response curves were obtained for each tissue by successive […] increases in the bath concentration of VIP or VIP analogs according to the method of VanRossum [Arch. Int. Pharmacodyn., 143, 299-330 (1963)]. Only one cumulative dose response curve was obtained on a single tissue. To minimize variability between tissues, relaxant responses were expressed as a percentage of the maximum response obtained to VIP (10^-6 M=100%) added at the end of each concentration response experiment. Responses obtained from three tissues were pooled and EC50 values were determined by linear regression.
The results summarized in Table I show the tracheal relaxant activity of the VIP analogs in comparison to native VIP.

EC50 [nM] | SMILES
4.4 | CCCC[C@H](NC(=O)[C@H](CCC(N)=O)NC(=O)[C@H](CCCCN)NC(=O)[C@H](CCCNC(=N)N)NC(=O)[C@H](CC(C)C)NC(=O)[C@H](CC(C)C)NC(=O)[C@@H](NC(=O)[C@H](Cc1ccc(N)cc1)NC(=O)[C@H](CC(N)=O)NC(=O)[C@H](CC(=O)O)NC(=O)[C@@H](NC(=O)[C@H](Cc1ccc(F)cc1)NC(=O)[C@@H](NC(=O)[C@H](C)NC(=O)[C@H](CC(=O)O)NC(=O)[C@H](CO)NC(=O)[C@H](Cc1c[nH]cn1)NC(C)=O)C(C)C)[C@@H](C)O)[C@@H](C)O)C(=O)N[C@@H](C)C(=O)N[C@@H](C)C(=O)N[C@@H](CCCCN)C(=O)N[C@H]1CCCCNC(=O)C[C@@H](C(=O)N[C@H](C(=O)N[C@@H](CC(C)C)C(=O)N[C@H](C(N)=O)[C@@H](C)O)C(C)C)NC(=O)[C@H](CC(N)=O)NC(=O)[C@H](CC(C)C)NC(=O)[C@H](Cc2ccc(O)cc2)NC1=O [SEQ ID NO:37, Ac-[p-F-Phe^6,p-NH2 -Phe^10,Leu^12,Nle^17,Ala^19,Asp^25,Val^26,Thr^28]-VIP cyclo (Lys^21 →Asp^25)] (Ac-HSDAV[Phe(4-F)]TDN[Phe(4-NH2)]TLLRKQ[Nle]AAKKYLNDVLT-NH2; lactam 21-25)
2.6 | CCCC[C@H](NC(=O)[C@H](CCC(N)=O)NC(=O)[C@H](CCCCN)NC(=O)[C@H](CCCNC(=N)N)NC(=O)[C@H](CC(C)C)NC(=O)[C@H](CCCCN)NC(=O)[C@@H](NC(=O)[C@H](Cc1ccc(OC)cc1)NC(=O)[C@H](CC(N)=O)NC(=O)[C@H](CC(=O)O)NC(=O)[C@@H](NC(=O)[C@H](Cc1ccccc1)NC(=O)[C@@H](NC(=O)[C@H](C)NC(=O)[C@H](CC(=O)O)NC(=O)[C@H](CO)NC(=O)[C@H](Cc1c[nH]cn1)NC(C)=O)C(C)C)[C@@H](C)O)[C@@H](C)O)C(=O)N[C@@H](C)C(=O)N[C@@H](C)C(=O)N[C@@H](CCCCN)C(=O)N[C@H]1CCCCNC(=O)C[C@@H](C(=O)N[C@H](C(=O)N[C@@H](CC(C)C)C(=O)N[C@H](C(N)=O)[C@@H](C)O)C(C)C)NC(=O)[C@H](CC(N)=O)NC(=O)[C@H](CC(C)C)NC(=O)[C@H](Cc2ccc(O)cc2)NC1=O [SEQ ID NO:41, Ac-[O-Me-Tyr^10,Lys^12,Nle^17,Ala^19,Asp^25,Val^26,Thr^28]-VIP cyclo (Lys^21 →Asp^25)] (Ac-HSDAVFTDNY(Me)TKLRKQ[Nle]AAKKYLNDVLT-NH2; lactam 21-25)
2.9 | CCCC[C@H](NC(=O)[C@H](CCC(N)=O)NC(=O)[C@H](CCCCN)NC(=O)[C@H](CCCNC(=N)N)NC(=O)[C@H](CC(C)C)NC(=O)[C@H](CCCCN)NC(=O)[C@@H](NC(=O)[C@H](Cc1ccc(O)cc1)NC(=O)[C@H](CC(N)=O)NC(=O)[C@H](CC(=O)O)NC(=O)[C@@H](NC(=O)[C@H](Cc1cccc2ccccc12)NC(=O)[C@@H](NC(=O)[C@H](C)NC(=O)[C@H](CC(=O)O)NC(=O)[C@H](CO)NC(=O)[C@H](Cc1c[nH]cn1)NC(C)=O)C(C)C)[C@@H](C)O)[C@@H](C)O)C(=O)N[C@@H](C)C(=O)N[C@@H](C)C(=O)N[C@@H](CCCCN)C(=O)N[C@H]1CCCCNC(=O)C[C@@H](C(=O)N[C@H](C(=O)N[C@@H](CC(C)C)C(=O)N[C@H](C(N)=O)[C@@H](C)O)C(C)C)NC(=O)[C@H](CC(N)=O)NC(=O)[C@H](CC(C)C)NC(=O)[C@H](Cc2ccc(O)cc2)NC1=O [SEQ ID NO:50, Ac-[1-Nal^6,Lys^12,Nle^17,Ala^19,Asp^25,Val^26,Thr^28]-VIP cyclo (Lys^21 →Asp^25)] (Ac-HSDAV[1Nal]TDNYTKLRKQ[Nle]AAKKYLNDVLT-NH2; lactam 21-25)
